According to publication PMC6934184, “Selective DNA-PKcs inhibition extends the therapeutic index of localized radiotherapy and chemotherapy” (The Journal of Clinical Investigation, 2019):

Biological target: T1, PTK2 (FAK) (Homo sapiens, UniProt Q05397)
T1 construct: purchased Thermo Fisher Scientific (Life Technologies) SelectScreen
Assay: SelectScreen Z'LYTE
Assay type: biochemical
Outline: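 NU5455 was profiled across the SelectScreen Broad panel of kinase activity and binding assays. Z'LYTE reactions such as CSF1R ran at apparent Km ATP, while the Adapta CAMK1 assay used ATP listed as 10. Values are given as percent.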

T1 sequence (Q05397 whole entry): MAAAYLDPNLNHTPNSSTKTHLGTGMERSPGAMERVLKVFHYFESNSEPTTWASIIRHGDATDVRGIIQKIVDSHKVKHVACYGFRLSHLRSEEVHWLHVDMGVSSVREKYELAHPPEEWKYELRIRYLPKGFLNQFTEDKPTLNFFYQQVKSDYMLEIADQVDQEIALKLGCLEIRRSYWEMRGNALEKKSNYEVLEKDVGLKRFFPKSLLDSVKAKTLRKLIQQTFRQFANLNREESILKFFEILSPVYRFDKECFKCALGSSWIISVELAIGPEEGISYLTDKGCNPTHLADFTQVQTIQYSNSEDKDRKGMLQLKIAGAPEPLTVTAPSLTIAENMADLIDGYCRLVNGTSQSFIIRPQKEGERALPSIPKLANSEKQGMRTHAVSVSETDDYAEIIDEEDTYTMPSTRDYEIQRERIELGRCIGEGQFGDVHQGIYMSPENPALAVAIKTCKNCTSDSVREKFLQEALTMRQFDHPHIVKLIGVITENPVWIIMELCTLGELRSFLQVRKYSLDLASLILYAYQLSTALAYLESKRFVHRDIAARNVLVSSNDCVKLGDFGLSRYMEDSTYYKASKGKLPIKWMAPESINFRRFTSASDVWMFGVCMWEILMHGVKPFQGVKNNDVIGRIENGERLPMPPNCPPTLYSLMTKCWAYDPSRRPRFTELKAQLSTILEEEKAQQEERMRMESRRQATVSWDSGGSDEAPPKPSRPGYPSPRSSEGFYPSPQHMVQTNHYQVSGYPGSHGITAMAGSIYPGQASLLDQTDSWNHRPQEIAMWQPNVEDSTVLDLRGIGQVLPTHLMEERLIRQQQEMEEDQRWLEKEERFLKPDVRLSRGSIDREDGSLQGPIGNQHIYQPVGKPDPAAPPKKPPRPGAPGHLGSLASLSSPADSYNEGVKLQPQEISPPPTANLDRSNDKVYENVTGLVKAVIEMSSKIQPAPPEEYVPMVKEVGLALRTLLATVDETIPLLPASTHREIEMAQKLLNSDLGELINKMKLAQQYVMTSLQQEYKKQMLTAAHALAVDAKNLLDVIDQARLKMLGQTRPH

SMILES: CN(C(=O)CN1CCOCC1)c1ccc2sc3c(-c4cccc5c(=O)cc(N6CC7CCC(C6)O7)oc45)cccc3c2c1 [NU5455]
- inhibition at 1 µM: 5.1%
